Data reported in publication PMC11763264, “Antibacterial and Antifungal Activities of Linear and Cyclic Peptides Containing Arginine, Tryptophan, and Diphenylalanine” (Antibiotics, 2025).
Values after ≈ are worked out from the molar mass of the structure shown. Non-standard residues stand in square brackets, D forms with d. Residues, ends and D or L forms follow the SMILES beside them. Dip = N[C@H](C(=O)O)C(c1ccccc1)c1ccccc1

Columns and labels:
[1] = system: B. subtilis (ATCC-6633); assay: microbe, parasite or virus in culture; assay type: cell-based, Bacillus subtilis; details: ATCC-6633, 24 h
Procedure: The antibacterial activity of all ten synthesized linear and cyclic peptides was evaluated against MRSA (ATCC BAA-1556), S. aureus (ATCC 29213), E. faecium (ATCC 700221), S. pneumoniae (ATCC 51938), E. faecalis (ATCC 29212), B. subtilis (ATCC-6633), K. pneumoniae (ATCC BAA-1705), P. aeruginosa (ATCC 27883), and E. coli (ATCC 25922). Meropenem and daptomycin were used as positive controls for this study. Certain peptides are marked as “NT” (not tested) against specific bacterial strains based on initial screening data. […] The MIC was determined by micro-broth dilution protocol, where the minimal concentrations were determined to be in wells with no visible bacterial growth.
All bacterial experiments were carried out in a laminar flow hood (Labconco, Kansas City, MO, USA). The bacterial strains were cultured following the guidelines set by the Clinical Laboratory Standards Institute (CLSI). Antibacterial assays were performed using a standard microtiter dilution method as described in previous studies. The minimum inhibitory concentration (MIC) refers to the lowest peptide concentration that inhibits bacterial growth in wells with no visible bacterial growth. MIC was determined by micro-broth dilution. Bacteria were cultured overnight in 6 mL of Luria Broth (LB). A stock solution of the peptide was prepared in water and DMSO, and a test compound solution with a concentration of 256 µg/mL was made in LB. Meropenem, with a solubility of 8 mg/mL, was prepared as a stock solution at 4 mg/500 µL. An aliquot of the overnight bacteria culture was diluted in normal saline (NS, 1 mL) until achieving a 0.5 McFarland turbidity (1.5 × 10^8 bacterial cell CFU/mL). A 0.5 McFarland compared solution (60 µL) was added to Mueller Hinton Broth (MH) 8940 µL to generate a 1/150 dilution. A 200 µL test compound solution was added to the first well of a 96-well plate, and the remaining wells (2–12) were filled with 100 µL of MH media using a multi-channel pipette from a sterile reservoir. A concentration of […] of the tested peptides was prepared from a stock solution of the samples for testing in Muller−Hinton broth MH media. Peptides stock solution was dissolved in 5% DMSO in water, and the final concentration of DMSO in the first well of assay plate was 2.5% DMSO/H2O and diluted across the assay plate.
A 100 µL sample from well 1 was pipetted into well 2, and the solution was mixed thoroughly by pipetting up and down. Next, 100 µL was transferred from well 2 to well 3, followed by thorough mixing. This 2-fold serial dilution process continued through well 11, with no additions made to well 12. The final 100 µL from well 11 was discarded. After completing the serial dilution, each well (1–12) contained 100 µL of solution. The bacterial culture in MH media was vortexed and transferred to a sterile reservoir, from which 100 µL was added to each well using a 12-channel pipette. (Note: The dilutions were further diluted upon adding the bacterial solution; for example, the concentration in well 1 started at […] after the addition of the bacterial culture.) The plates were incubated overnight at 37 °C for 24 h. All experiments were performed in triplicate and repeated twice, with controls consisting of bacteria in MH media and positive controls of daptomycin or meropenem.

[2] = system: C. parapsilosis (ATCC 22019); assay: microbe, parasite or virus in culture; assay type: cell-based, Candida parapsilosis; details: ATCC 22019, 24 h
Procedure: The antifungal activity of all ten synthesized linear and cyclic peptides was evaluated against C. albicans (ATCC 60193), C. parapsilosis (ATCC 22019), and A. fumigatus (AF-293). Fluconazole and amphotericin B were used as positive controls for this study. The MIC was determined at concentrations in wells with no visible fungal growth.
In this study, C. albicans and C. parapsilosis were cultured on Yeast Peptone Dextrose (YPD) agar containing 1% w/v yeast extract, 2% w/v peptone, 2% w/v D-glucose, and 1.5% agar. A single colony from the agar was selected and cultured in Tryptone soy broth supplemented with 0.1% D-glucose, then incubated for 24 h at 37 °C. The cells were washed twice with PBS by centrifugation at 2000 RPM for 5 min. The pellet was resuspended in 5 mL of PBS, diluted in RPMI 1640 with L-glutamine, supplemented with 2% D-glucose, and the pH adjusted using HEPES buffer. The suspension was then incubated for 50 min at 35 °C to achieve a final cell concentration of 10^6 cells/mL.
Peptide concentrations of 50, 25, 12.5, 6.25, and 3.1 μg/mL were tested in triplicate and repeated twice. Each well of a 96-well plate was inoculated with the prepared inoculum suspension, which was diluted with RPMI media to a final volume of 200 μL per well. The control well received the same inoculum without any compound. The plates were incubated for 24 h at 37 °C. Fungal and microbial growth were visually observed in the control wells, and the minimum inhibitory concentration (MIC) was determined as the lowest concentration at which no growth was detected in the wells. Amphotericin B was used as a standard antifungal drug.

In the case of N=C(N)NCCC[C@@H]1NC(=O)[C@H](C(c2ccccc2)c2ccccc2)NC(=O)[C@H](CCCNC(=N)N)NC(=O)[C@H](C(c2ccccc2)c2ccccc2)NC(=O)[C@H](CCCNC(=N)N)NC(=O)[C@H](C(c2ccccc2)c2ccccc2)NC(=O)[C@H](CCCNC(=N)N)NC(=O)[C@H](C(c2ccccc2)c2ccccc2)NC(=O)[C@H](CCCNC(=N)N)NC(=O)[C@H](C(c2ccccc2)c2ccccc2)NC1=O [[DipR]5] (cyclo([Dip]R[Dip]R[Dip]R[Dip]R[Dip]R)), the MIC [1] is reported as 6.3 µM (≈ 12 µg/mL) and the MIC [2] is reported as 6.6 µM (≈ 12.5 µg/mL).
